Assays:
[1] = target: T1, Fuc-TIII (Homo sapiens, UniProt P21217); test: Fucosyltransferase assay, extracts of COS-1 cells expressing the Lewis fucosyltransferase; assay type: biochemical; settings: for fucose transfer to acceptor: extracts containing the Lewis blood group fucosyltransferase, same conditions as Fuc-TIV; for Relative Activity (%) with Fuc-TIII: relative product formation rate, N-acetyllactosamine = 100, acceptor 20 mM (2-fucosyllactose 5 mM), GDP-[14C]fucose 3 μM, transfected COS-1 cell extract
T1 construct: showing that this insert is essentially full-length; expressed in transfected cells; host or cells: COS-1 cells (monkey kidney), transient DEAE-dextran transfection, 1% Triton X-100 extract
T1 sequence (P21217 1-361): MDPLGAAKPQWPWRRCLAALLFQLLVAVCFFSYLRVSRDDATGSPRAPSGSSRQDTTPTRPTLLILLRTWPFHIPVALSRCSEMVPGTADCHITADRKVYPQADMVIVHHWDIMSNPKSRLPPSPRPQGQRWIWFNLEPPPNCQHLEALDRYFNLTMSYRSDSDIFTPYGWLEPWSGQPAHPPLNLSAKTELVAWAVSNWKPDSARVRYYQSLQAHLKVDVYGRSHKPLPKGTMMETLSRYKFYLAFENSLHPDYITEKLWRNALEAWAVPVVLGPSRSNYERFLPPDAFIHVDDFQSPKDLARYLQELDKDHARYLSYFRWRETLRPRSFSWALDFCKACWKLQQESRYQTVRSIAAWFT
Method: Fucosyltransferase assays were performed in 50 mM MOPS pH 6.5, 25 MM MnCl2 10 MM L-fucose, 5 mM ATP, […] GDP-[^14C]fucose (specific activity of 600,000 cpm/nmol; 35,000 cpm per assay), 2.5 mM acceptor (e.g. 2′-fucosyllactose, N-acetyllactosamine, lactose or lacto-N-biose I), and up to 10 μl of cell extract, in a final volume of 20 μl. When determining α(1,3)FT specific activities achieved during the sib selection process, and in the analysis of the protein A-fucosyltransferase fusion protein experiments, the amount of added cell extract and incubation times were adjusted to yield (linear) reaction rates reflecting accurate specific activities. Reactions were incubated at 37° C. for 2 or 6 hours, and then terminated by the addition of 20 μl of ethanol, followed by dilution with 500 μl of H2O. The terminated, diluted reactions were then centrifuged at 15,000×g for 5 min. Fifty μl of each reaction supernatant was counted to determine total radioactivity, and 200 μl of each was fractionated by Dowex-1 chromatography. The neutral radiolabelled material eluting from the column was then counted directly as a measure of product formation. Enzyme specific activity is defined as pmol of fucose transferred from GDP-fucose to acceptor per mg cell extract protein per hour. Neutral products were also further analyzed as described below by descending paper chromatography and by HPLC to confirm their identity. Parallel reactions were done in the absence of added acceptor to allow correction for transfer to endogenous acceptor molecules and for substrate and product hydrolysis.
(§1) Cell extracts containing 1% Triton X-100 were prepared from transfected COS-1 cells. Fucosyltransferase assays were performed in a total volume of 20 μl, and contained 50 mM sodium cacodylate, pH 6.2, 5 mM ATP, 10 mM fucose, 20 mM MnCl2, 3 μM GDP-^14C-fucose, and 5 μl (30 μg protein) of cell extract. Acceptor substrates were added to a final concentration of 20 mM. Reactions were incubated at 37° C. for 1 hour and terminated by addition of 20 μl ethanol, followed by addition of 600 μl of distilled water. An aliquot of each reaction (50 μl) was subjected to scintillation counting to determine total radioactivity in the reaction. Another aliquot (200 μl) was applied to a column containing 400 μl of Dowex IX2-400, formate form. The flow through fraction, and […] of a subsequent water elution, were collected and pooled, and an aliquot was subjected to scintillation counting to quantitate incorporation of radioactive fucose into neutral product. Descending paper chromatography was used to confirm the structure of the product formed with the acceptor N-acetyllactosamine. The neutral product in the Dowex column eluate was concentrated by lyophilization, resuspended in a small volume of water, and fractionated through Whatman No. 40 in phenol/isopropanol/formic acid/water (85:5:10:100, lower layer). After chromatography (40 hours), the air-dried chromatogram was cut into 1 cm strips and the strips eluted into 2 ml of water. Radioactivity in each eluate was determined by scintillation counting after mixing with 10 ml of scintillation cocktail.
Table 2 presents the relative product formation rates obtained with low molecular weight acceptor substrates using cell extracts containing recombinant human α(1,3)fucosyltransferases expressed in transfected COS-1 cells, as described in the preceding sections. Fucosyltransferase assays were performed as described in detail in Lowe et al, J. Biol. Chem., (1991), 266:17467-17477; Weston et al, J. Biol. Chem. (1992), 267:4152-4160; and Kukowska-Latallo et al, Genes. Devel., (1990), 4:1288-1303. For each enzyme, the same extract was used, with saturating amounts of each acceptor oligosaccharide (20 mM, except for 2′-fucosylactose which was used at 5 mM), and GDP-^14C]fucose was present at 3 μM. Reaction times and enzyme amounts were adjusted to ensure a linear rate of product formation (less than 15% of the GDP-fucose substrate consumed). […]

[2] = target: T2, Fuc-TIV (Homo sapiens, UniProt P22083); test: Fucosyltransferase assay, extracts of CHO-FT3 cells (CHO transfected with pCDNA1-Fuc-TIV); assay type: biochemical; parameters: expressed in transfected cells; settings: standard assay, CHO-FT3 cell extracts
T2 sequence (P22083 1-405 isoform P22083-2): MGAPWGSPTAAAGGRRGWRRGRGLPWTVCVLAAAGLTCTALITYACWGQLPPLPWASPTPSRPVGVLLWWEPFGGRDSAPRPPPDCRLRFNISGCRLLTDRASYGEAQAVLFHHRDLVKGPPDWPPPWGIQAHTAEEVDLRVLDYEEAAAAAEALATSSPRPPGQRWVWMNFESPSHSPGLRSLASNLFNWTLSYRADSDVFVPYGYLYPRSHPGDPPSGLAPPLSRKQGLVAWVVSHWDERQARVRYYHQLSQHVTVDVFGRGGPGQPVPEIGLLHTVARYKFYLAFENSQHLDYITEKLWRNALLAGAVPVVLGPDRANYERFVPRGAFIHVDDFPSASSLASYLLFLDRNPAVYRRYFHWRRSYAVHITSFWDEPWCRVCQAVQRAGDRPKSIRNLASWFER
Method: CHO Ade-C cells were transfected with Scal-linearized pCDM7-Fuc-TIV, co-precipitated in a 10-fold molar excess over EcoRI-linearized pSV2-Neo. A single, clonal, SSEA-1-positive cell line (CHO-FT3) was derived from this population. Cell extracts prepared from CHO-FT3 contained substantial amounts of α(1,3)fucosyltransferase activity when assayed with the acceptor N-acetyllactosamine.
as §1

| Compound | Relative Activity (%) with Fuc-TIII [1] [%] | α(1,3)fucosyltransferase activity with acceptor substrate [2] [pmol/mg/h] | fucose transfer to acceptor [1] [pmol/mg/h] |
| --- | --- | --- | --- |
| CC(=O)N[C@H]1C(O)O[C@H](CO)[C@@H](O[C@@H]2O[C@H](CO)[C@H](O)[C@H](O)[C@H]2O)[C@@H]1O (stereo partly shown) [N-acetyllactosamine] | 100 | 59.1 | 526 |
| Fucα(1,2)Galβ(1,4)Glc [2-fucosyllactose] | 254 | 5.8 | – |

Now from value to compound, other results behind:

| Relative Activity (%) with Fuc-TIII [1] [%] | α(1,3)fucosyltransferase activity with acceptor substrate [2] [pmol/mg/h] | Compound | fucose transfer to acceptor [1] [pmol/mg/h] |
| --- | --- | --- | --- |
| 420 | – | CC(=O)N[C@@H]1[C@@H](O[C@@H]2O[C@H](CO)[C@H](O)[C@H](O)[C@H]2O)[C@H](O)[C@@H](CO)O[C@@H]1O [lacto-N-biose I] | – |
| 145 | 2.0 | OC[C@H]1O[C@@H](O[C@H]2[C@H](O)[C@@H](O)C(O)O[C@@H]2CO)[C@H](O)[C@@H](O)[C@H]1O (stereo partly shown) [lactose] | – |
| 56 | – | CC(=O)NC1C(O)OC(CO)C(OC2OC(CO)C(O)C(OC3(C(=O)O)CC(O)C(NC(C)=O)C(C(O)C(O)CO)O3)C2O)C1O (stereo not drawn) [α(2,3)sialyllactosamine, NeuAcα(2→3)Galβ(1→4)GlcNAc] | 297 |

Reference: patent publication US20020102688A1, “Methods and products for the synthesis of oligosaccharide structures on glycoproteins, glycolipids, or as free molecules, and for the isolation of cloned genetic sequences that determine these structures” (The Regents of the University of Michigan, priority 1990, published 2002)
